Each structure is given as a SMILES string.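 Test compounds were applied to cells in 96-well plates for 48 hours at 5 doses. GI50 is the concentration that inhibits growth by half. At the TGI there is no net growth.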

Consider 26 compounds from PubChem BioAssay (NCI).

Some test systems named below: LOX IMVI melanoma; RPMI-8226 leukemia; SK-MEL-2 melanoma; SK-MEL-5 melanoma; SNB-19 CNS; TK-10 renal; U251 CNS.
Assay in all cases: NCI anticancer screen, dose series, 48 h

As to `O=C(O)CSc1n[nH]c(/C=C/c2ccccc2)n1`, the TGI in the assay on LOX IMVI melanoma, in the assay with RPMI-8226 leukemia, with SK-MEL-2 melanoma, in the assay on SK-MEL-5 melanoma, with SNB-19 CNS and in the assay on TK-10 renal was greater than 100 µM each time. In the assay with U251 CNS, this compound had a TGI greater than 100 µM.
As to `OCC(O)CC[CH2][Sn]([c]1ccccc1)([c]1ccccc1)[c]1ccccc1` (centres undefined), the GI50 in the assay on LOX IMVI melanoma was 14.9 µM; in the assay with RPMI-8226 leukemia, 14.4 µM; with SK-MEL-2 melanoma, 15.3 µM; in the assay on SK-MEL-5 melanoma, 15.3 µM; in the assay on SNB-19 CNS it was 19.4 µM; in the assay with TK-10 renal, 17 µM. In addition, the GI50 in the assay with U251 CNS was 15.6 µM. The TGI in the assay with LOX IMVI melanoma was 30.7 µM; in the assay on RPMI-8226 leukemia, 47.5 µM; in the assay with SK-MEL-2 melanoma, 29 µM; with SK-MEL-5 melanoma it was 29.1 µM; in the assay on SNB-19 CNS it was 33.7 µM; with TK-10 renal it was 31.2 µM. The TGI in the assay with U251 CNS was found to be 30.2 µM.
Turning to `COC(=O)N1[C@H]2Cc3c(OC)c(C)c(OC)c(OC)c3[C@@H]1/C(=C\c1cc(OC)c(OC)c(C)c1OC)N(Cc1ccccc1)C2=O`, the TGI in the assay with LOX IMVI melanoma is greater than 100 µM; in the assay on RPMI-8226 leukemia it was greater than 100 µM; in the assay with SK-MEL-2 melanoma it was greater than 100 µM; in the assay on SK-MEL-5 melanoma, 53.8 µM; in the assay on SNB-19 CNS, greater than 100 µM; with TK-10 renal, greater than 100 µM. This compound also returned a TGI in the assay on U251 CNS greater than 100 µM.
In the case of `COc1cc(OC)cc(N2CCC(c3c(N)nc(N)nc3Cl)CC2)c1`, the TGI with LOX IMVI melanoma is greater than 100 µM; with RPMI-8226 leukemia, greater than 100 µM; with SK-MEL-2 melanoma, greater than 100 µM; in the assay with SK-MEL-5 melanoma, 97.7 µM; with SNB-19 CNS, greater than 100 µM; in the assay on TK-10 renal it was greater than 100 µM.
As for `CCCCOC1CC2(c3ccc(OC)cc3)C(=O)c3ccccc3N2O1` (centres undefined), the TGI in the assay on LOX IMVI melanoma was greater than 10 µM; in the assay on RPMI-8226 leukemia, 65.7 µM; in the assay on SK-MEL-2 melanoma it was greater than 100 µM; in the assay with SK-MEL-5 melanoma it was 88.4 µM; in the assay on SNB-19 CNS, greater than 10 µM; with TK-10 renal, greater than 100 µM. Moreover, in the assay with U251 CNS, the TGI is greater than 10 µM.
As for `CC(NC(=O)c1ccccc1)C(=O)N(Cc1ccccc1)Cc1ccccc1` (centres undefined), the TGI in the assay with LOX IMVI melanoma is 47.7 µM; with RPMI-8226 leukemia, 45.7 µM; in the assay on SK-MEL-2 melanoma, 56.3 µM; in the assay on SK-MEL-5 melanoma, 44.9 µM; in the assay with SNB-19 CNS, greater than 100 µM; in the assay with TK-10 renal, greater than 100 µM. In addition, the TGI in the assay with U251 CNS came out at 91.7 µM.
`O=c1cc2n(c(=O)[nH]1)C1OC(C(O)C1O)[C@@H]2CCO` (some centres undefined): the TGI in the assay with LOX IMVI melanoma, in the assay with SK-MEL-2 melanoma, with SK-MEL-5 melanoma, in the assay with SNB-19 CNS, in the assay on TK-10 renal and in the assay on U251 CNS was greater than 100 µM in each case.
`CC(=O)[CH-]C(=O)c1ccccc1.CC(=O)[CH-]C(=O)c1ccccc1.[Nd+3].[OH-].[OH3+]`: the GI50 in the assay with LOX IMVI melanoma, in the assay on RPMI-8226 leukemia, in the assay on SK-MEL-2 melanoma, in the assay with SK-MEL-5 melanoma, with SNB-19 CNS and in the assay with TK-10 renal was greater than 100 µM in each case. The GI50 with U251 CNS was greater than 100 µM. For the same compound, the TGI in the assay on LOX IMVI melanoma, in the assay on RPMI-8226 leukemia, in the assay on SK-MEL-2 melanoma, in the assay with SK-MEL-5 melanoma, in the assay with SNB-19 CNS and in the assay with TK-10 renal was greater than 100 µM each time. The TGI in the assay on U251 CNS is greater than 100 µM.
In the case of `COc1ccc(CNc2cc(OC)cc(OC)c2)cc1`, the TGI with LOX IMVI melanoma, with RPMI-8226 leukemia, in the assay with SK-MEL-2 melanoma, with SK-MEL-5 melanoma, with SNB-19 CNS and with TK-10 renal was greater than 100 µM throughout. The compound also came in with a TGI with U251 CNS greater than 100 µM.
Regarding `CN(C)CCC1(C2=CCCC2)CC/C(=C\c2ccc3c(c2)OCO3)C1=O` (centres undefined), the TGI in the assay on RPMI-8226 leukemia turned out to be 73.9 µM; in the assay with SK-MEL-2 melanoma it was 31.6 µM; with SK-MEL-5 melanoma, 27.6 µM; in the assay with SNB-19 CNS it was 43.5 µM; in the assay on TK-10 renal, 29.2 µM; with U251 CNS, 29 µM.
As to `CC(C)(C)c1nc2c(o1)C(=Nc1ccccc1)c1ccccc1C2=O`, the TGI in the assay with LOX IMVI melanoma turned out to be 4.14 µM; in the assay on RPMI-8226 leukemia, 50 µM; in the assay with SK-MEL-2 melanoma, 6.99 µM; in the assay on SK-MEL-5 melanoma, 2.97 µM; in the assay on SNB-19 CNS, 27.5 µM; with TK-10 renal it was 59.6 µM. Moreover, the TGI in the assay with U251 CNS is 14 µM.
As to `CCc1nc2c(O)ccc(O)c2nc1C`, the TGI in the assay with LOX IMVI melanoma is 29.9 µM; in the assay with RPMI-8226 leukemia, greater than 43.8 µM; in the assay with SK-MEL-2 melanoma, 32.2 µM; with SK-MEL-5 melanoma it was 31.2 µM; in the assay on SNB-19 CNS, 33.7 µM; with TK-10 renal, 37.1 µM. In the assay with U251 CNS, this compound had a TGI of 30.2 µM.
Consider `COC(=O)OCC1OC(N2C(=O)NC(=O)C(I)C2N=[N+]=[N-])CC1OC(=O)OC` (centres undefined), for which the TGI with LOX IMVI melanoma, with RPMI-8226 leukemia, in the assay with SK-MEL-5 melanoma, with SNB-19 CNS, with TK-10 renal and in the assay with U251 CNS was greater than 100 µM throughout.
As for `CN(C)CCNC(=O)c1ccc2ccc3cccnc3c2n1`, the TGI in the assay on LOX IMVI melanoma is 49.8 µM; in the assay on SK-MEL-2 melanoma, 29.3 µM; with SK-MEL-5 melanoma it was 28.3 µM; in the assay on SNB-19 CNS, greater than 93 µM; in the assay with TK-10 renal, 62.8 µM; with U251 CNS, greater than 88.8 µM.
In the case of `O=C(Cc1ccccc1)Oc1ccc2c(-c3ccccc3)c(C(=O)Nc3ccc(Cl)cc3)c(=O)oc2c1`, the TGI in the assay with LOX IMVI melanoma, in the assay on RPMI-8226 leukemia, in the assay on SK-MEL-5 melanoma, in the assay with SNB-19 CNS, with TK-10 renal and in the assay with U251 CNS was greater than 100 µM throughout.
Regarding `Cc1cccc(C)c1NC(=O)CCC(=O)NNC(=O)c1cc(O)c2ccccc2c1`, the TGI in the assay with LOX IMVI melanoma was greater than 100 µM; in the assay on RPMI-8226 leukemia it was greater than 100 µM; with SK-MEL-5 melanoma, 84.6 µM; in the assay on SNB-19 CNS it was greater than 100 µM; with TK-10 renal, greater than 100 µM; in the assay with U251 CNS, greater than 100 µM.
As for `COC(=O)c1cnc2nc(N3CCOCC3)[nH]n2c1=O`, the TGI with LOX IMVI melanoma, with RPMI-8226 leukemia, in the assay on SK-MEL-2 melanoma, in the assay on SK-MEL-5 melanoma, in the assay on SNB-19 CNS and in the assay on TK-10 renal was greater than 100 µM in each case. Further, the TGI in the assay with U251 CNS was greater than 100 µM.
Turning to `COc1nc(OC)c2c(=O)oc(-c3ccccc3)cc2n1`, the TGI in the assay with RPMI-8226 leukemia, in the assay with SK-MEL-2 melanoma, with SK-MEL-5 melanoma, with SNB-19 CNS, with TK-10 renal and in the assay on U251 CNS was greater than 100 µM each time.
Regarding `COc1ccc(-c2cc(C(=O)Nc3cccc(C(F)(F)F)c3)[nH]c(=S)n2)cc1`, the TGI with LOX IMVI melanoma, in the assay with RPMI-8226 leukemia, in the assay on SK-MEL-2 melanoma, in the assay on SK-MEL-5 melanoma, in the assay on SNB-19 CNS and in the assay on TK-10 renal was greater than 100 µM throughout. This compound showed a TGI with U251 CNS greater than 100 µM.
As for `O=C(NC1CCCCC1)c1c(O)[nH]c(=S)[nH]c1=O`, the TGI in the assay with LOX IMVI melanoma, with RPMI-8226 leukemia, with SK-MEL-2 melanoma, in the assay on SK-MEL-5 melanoma, with SNB-19 CNS and in the assay with TK-10 renal was greater than 100 µM throughout. In the assay on U251 CNS, this compound came in with a TGI greater than 100 µM.
Regarding `N#C/C(=C\c1ccc(CP(=O)(O)O)cc1)C(N)=O`, the TGI in the assay with LOX IMVI melanoma, in the assay with RPMI-8226 leukemia, in the assay on SK-MEL-2 melanoma, in the assay with SK-MEL-5 melanoma, in the assay on SNB-19 CNS and in the assay with TK-10 renal was greater than 100 µM throughout. Moreover, the TGI in the assay on U251 CNS is greater than 100 µM.
For the compound `O=C1CCC2(c3ccc(F)cc3)Nc3ccccc3N12` (centres undefined), the TGI with LOX IMVI melanoma, in the assay with RPMI-8226 leukemia, with SK-MEL-2 melanoma, in the assay on SK-MEL-5 melanoma, in the assay on TK-10 renal and in the assay on U251 CNS was greater than 100 µM each time.
As to `CS(=O)(=O)C1S(=O)(=O)OCCOS1(=O)=O`, the TGI with LOX IMVI melanoma, in the assay on RPMI-8226 leukemia, in the assay on SK-MEL-5 melanoma, in the assay with SNB-19 CNS, in the assay with TK-10 renal and with U251 CNS was greater than 100 µM in each case.
With `O=c1/c(=C/c2cccc3ccccc23)sc2nc3ccccc3n12`, the TGI in the assay with LOX IMVI melanoma, in the assay on SK-MEL-2 melanoma, in the assay on SK-MEL-5 melanoma, with SNB-19 CNS, in the assay with TK-10 renal and in the assay with U251 CNS was greater than 100 µM throughout.
With `CC(=O)O[C@]1(C(C)=O)CC[C@H]2[C@@H]3C[C@H](C)C4=CC(=O)C=C[C@]4(C)[C@@]3(F)[C@@H](O)C[C@@]21C`, the TGI in the assay with LOX IMVI melanoma, in the assay on RPMI-8226 leukemia, in the assay on SK-MEL-5 melanoma, in the assay on SNB-19 CNS, in the assay on TK-10 renal and with U251 CNS was greater than 100 µM each time.
Regarding `[Cu+2].[Cu+2].[O-]c1ccccc1C=Nc1ccccc1[O-].[O-]c1ccccc1C=Nc1ccccc1[O-]`, the GI50 was 4.12 µM with LOX IMVI melanoma; 3.5 µM in the assay on RPMI-8226 leukemia; 11.5 µM in the assay on SK-MEL-2 melanoma; 3.3 µM in the assay with SK-MEL-5 melanoma; 5.32 µM in the assay with SNB-19 CNS; 18.3 µM in the assay with TK-10 renal. The TGI in the assay with LOX IMVI melanoma was 17.5 µM; in the assay on RPMI-8226 leukemia, 54.6 µM; in the assay on SK-MEL-2 melanoma it was 24.4 µM; with SK-MEL-5 melanoma it was 12 µM; with SNB-19 CNS it was 17.8 µM; in the assay on TK-10 renal, 32.3 µM.
